“Also recorded” adds a separate entry of the source.
Columns and labels:
[1] = Titration of phage clone binding to blocked plastic (control)
Method: (§1) The dendritic cells were spun down at 2000 rpm, for 5 min at 4° C., and resuspended in the phage solution, allowing the phage to bind for 1 hour on ice with occasional mixing. The cells were then washed in PBS-Tween 20 (0.05%) three times before eluting phage with 166 μl TBS pH5.5. for 10 min on ice. The eluate was neutralised with […] Tris-HCl pH 8, the cells were spun down, and the supernatant removed to be stored as eluate. The cell pellet was resuspended in 200 μl of cell lysis buffer (30 mM Tris-HCl, 1 mM EDTA pH 8.0) for 1 hour on ice, with shaking. The cell debris was removed by spinning at 5000 rpm for 5 min and the supernatant recovered. The phage in the eluate and the cell lysate were titred by measuring plaque forming units (pfu) in E. coli ER2738 as described in the NEB C7C technical bulletin.
(§2) The titration of phage clone binding was carried out using human and mouse dendritic cells, with binding to plastic as a control. The human cells were obtained from donors as stated below.

[2] = system: human monocyte-derived immature dendritic cells; assay: LID (lipid-peptide-DNA) transfection of immature dendritic cells, EGFP by FACS and 7AAD cell death; assay type: cell-based; set-up: Transfection efficiency, % EGFP positive cells: concentration or dose not given beside the values; conditions: for Percentage of dendritic cells transfected / Transfection efficiency, % positive cells: day 4 cells; for Percentage of dendritic cells transfected: LID with lipofectin (FIG. 4b)
Method: (§3) Lipopolyplex (LID) transfection complexes comprising lipid (L), peptide (in the form of a peptide derivative as described above) (I) and DNA (D) were prepared. The lipid component was Lipofectin or Lipofectamine 2000 (Invitrogen Ltd, Paisley, UK), the peptide component was a synthesized peptide A to F, 6 or 6J derivative, as described in Table 7 above, and the DNA was the plasmid pEGFP-N1 (Clontech, BD Biosciences, Palo Alto, Calif.)
In the transfection complex, peptide component to DNA charge ratios (+/−) were used at 1.5:1, 3:1 and 7:1. The lipid
(§4) component (Lipofectin or Lipofectamine 2000) was maintained at a constant proportion, by weight, relative to DNA of 0.75:1. Prior to making transfection complexes, in method A the lipid component was diluted to a concentration of 15 μg per ml, the peptide was prepared at 0.1 mg/ml and the DNA (plasmid pEGFP-N1, BD Biosciences, Cowley, UK, prepared using EndoFree plasmid kit, Qiagen Ltd, Crawley, UK) was at 10 μg per ml. All dilutions were performed with OptiMEM reduced serum tissue culture medium (Life Technologies Ltd, Paisley, UK). In method B prior to making transfection complexes the lipid component was diluted to a concentration of 30 μg per ml, the peptide was prepared at 0.1 mg/ml and the DNA (plasmid pEGFP-N1, BD Biosciences, Cowley, UK, prepared using EndoFree plasmid kit, Qiagen Ltd, Crawley, UK) was at […]. All dilutions were performed in serum-free RPMI.
(§5) Transfection complexes were made by mixing the components in the order 1) lipid (50 μl) then 2) peptide (70 μl) and finally 3) DNA (50 μl), then diluting with OptiMEM or serum free RPMI, as appropriate, to a concentration relative to the DNA component of 2 μg DNA per […] (OptiMEM) or 500 μl (RPMI).
Immature day 6 dendritic cells, obtained as described in Example 1(v) above, were plated into a 48 well plate at 5×10^4 cells per well in complete media and allowed to settle for 3 hours at 37° C. 300 μl or 500 μl (as appropriate) of the transfection complex obtained as described above was added to each well. The transfection complex was applied to cells within 5 minutes of preparation. Transfection incubations were performed at 37° C. for 4 hours, after which the medium was replaced with complete medium with cytokines for 24 hours. Cells were harvested by scraping, spun down and resuspended in 300 μl PBS for FACS analysis to determine the percentage of cells positive for the reporter gene EGFP (Enhanced Green Fluorescent Protein). Each transfection was performed in triplicate wells.
(§6) For transfection of monocytes, peripheral blood monocytes were prepared using Lymphoprep centrifugation and CD14 bead selection as described in the method for preparation of monocyte derived dendritic cells in Example 1(v) above. These cells were then transfected as described as described for dendritic cells except that transfection of the monocytes (and also of day 3 or day 4 immature dendritic cells) was carried out in solution.

[3] = system: mouse dendritic cells; assay: Titration of phage clone binding to mouse dendritic cells; conditions: 2×10^11 phage
Method: as §1, §2

[4] = system: human monocyte-derived immature dendritic cells; assay: Titration of phage clone binding to human dendritic cells; conditions: for Phage harvested by cell lysis (pfu), human donor S / Phage harvested by cell lysis (pfu), human donor one / Phage harvested by cell lysis (pfu), human donor two: 2×10^11 phage on 5×10^4 cells, 1 hour on ice; for Extent of phage clone binding in titrations: all titrations, including mouse dendritic cells, versus phage with no insert
Method: Phage were recovered and titred from each round of selection as follows. 2×10^11 Blocked phage were added to 5×10^4 blocked monocyte-derived immature dendritic cells for 1 hour on ice before washing cells three times with 0.05% Tween20-PBS, eluting phage with TBS pH5.5, and lysing cells to harvest the phage remaining bound. The numbers of phage harvested by cell lysis were calculated as plaque forming units (pfu). […] Sequencing of the bound phage shown in FIG. 1 identified the peptides as APSNSTA [SEQ. ID. NO.:15], QLLTGAS [SEQ. ID. NO.:30], TARDYRL [SEQ. ID. NO.:31], FQSQYQK [SEQ. ID. NO.:26], PLMPSLS [SEQ. ID. NO.:24], FPRAPHH [SEQ. ID. NO.:32], MASISMK [SEQ. ID. NO.:27], DWWHTSA [SEQ. ID. NO.:28], SHVKLNS [SEQ. ID. NO.:29], and SPALKTV [SEQ. ID. NO.:16].
as §1, §2

[5] = system: human monocyte-derived immature dendritic cells; assay: Whole cell flow cytometry (FACS) of phage clone binding; conditions: day 4 cells, several donors; versus phage clone with no insert
Method: 5×10^4 Dendritic cells and 2×10^11 of an individual purified phage clone were each blocked at 4° C. for 30 mins in 1 ml MBSA (2% Marvel, 5% BSA in PBS), with mixing on a turntable. The dendritic cells were spun down at 2000 rpm, a gentle centrifugation to pellet cells without lysing them, for 5 min at 4° C., and the pellet resuspended in the blocked phage solution. The mixture was held on ice for 30 min to allow the phage to bind, before spinning down the cells, removing the supernatant and washing the cells with 1 ml 1% BSA, 0.05% Tween20-PBS. The cells were spun again, the supernatant removed, and the cells fixed in 1 ml 1% paraformaldehyde for 30 min on ice. […] The cells were incubated with the antibody on ice for 30 min before spinning down, washing twice in 0.05% Tween20, 1% BSA PBS, resuspending in […] and measuring the percentage cells positive for FITC by FACS analysis.
Alternatively, 5×10^4 dendritic cells were mixed with 2×10^11 of individual phage clones as described for panning of the phage library. The mixture of phage and DC suspensions was kept on ice for 30 min before cells were centrifuged to remove the supernatant and washed with 1 ml 1% BSA, 0.05% Tween 20-PBS. The cells were again pelleted by centrifugation, then fixed for flow cytometry analysis by resuspending in 1 ml of 1% paraformaldehyde for 30 min on ice. […] The cells were incubated with the antibody on ice for 30 min then pelleted by centrifugation, washed twice in 0.05% Tween 20, 1% BSA PBS and resuspended in 200 μl PBS. The percentage of FITC-positive cells was determined by flow cytometry using a Epics XL flow cytometer (Beckman Coulter, High Wycombe, UK.).

[6] = system: human peripheral blood monocytes; assay: LID transfection of monocytes, EGFP by FACS and cell death; assay type: cell-based
Method: as §3, §4, §5, §6

[7] = lipofectin, lipid:DNA 0.75:1, peptide:DNA 7:1 (FIG. 5a)

| Substance | Phage titre (pfu), plastic [1] [pfu ×10^3] | Percentage of dendritic cells transfected [2] | Phage titre (pfu), mouse DCs [3] [pfu ×10^3] | Phage harvested by cell lysis (pfu), human donor S [4] [pfu ×10^3] | Phage harvested by cell lysis (pfu), human donor one [4] [pfu ×10^3] | Phage harvested by cell lysis (pfu), human donor two [4] [pfu ×10^3] | Percentage of cells positive for bound phage (FITC) by FACS [5] | Cell death ([6]; FIG. 7b, peptide F value with Lipofectin) [%] | Transfection efficiency, % positive cells [2, 7] | Extent of phage clone binding in titrations [4] | Percentages of cells transfected (ranking) ([6]; FIG. 7a) | Transfection efficiency, % EGFP positive cells ([2]; day 3 dendritic cells (FIG. 6a)) [%] | Transfection efficiency, % positive cells ([2]; Lipofectamine 2000) [%] |
| --- | --- | --- | --- | --- | --- | --- | --- | --- | --- | --- | --- | --- | --- |
| DWWHTSA (Synthetic peptide binding to dendritic cells) | 1180 | less than 1% | 3240 | 8020 | 2980 | 1380 | binding to a higher percentage of cells than a phage clone bearing no insert; also recorded: bind to dendritic cells in highest amounts; also recorded: binding to dendritic cells in highest amounts | 25 |  |  |  |  |  |
| FPRAPHH (Synthetic peptide binding to dendritic cells) | 1860 |  | 13980 | 19400 | 15920 | 3200 | a higher percentage of cells positive for bound phage than the controls with no insert |  | 11% | bound in highest numbers in all titrations | highest percentages of cells transfected |  |  |
| FQSQYQK (Synthetic peptide binding to dendritic cells) | 1680 |  | 3260 | 3060 | 1000 | 360 | binding to a higher percentage of cells than a phage clone bearing no insert |  |  |  |  |  |  |
| MASISMK (Synthetic peptide binding to dendritic cells) | 2380 | approximately half that value | 6380 | 9440 | 15220 | 7780 | a higher percentage of cells positive for bound phage than the controls with no insert |  | about 7% | bound in highest numbers in all titrations |  |  |  |
| PMLPSLS (Synthetic peptide binding to dendritic cells) | 80 |  | 1520 | 560 | 40 | 40 | a higher percentage of cells positive for bound phage than the controls with no insert |  |  |  |  |  |  |
| QLLTGAS (Synthetic peptide binding to dendritic cells) | 220 |  | 20 | 220 | 380 | 960 | a higher percentage of cells positive for bound phage than the controls with no insert; also recorded: binds to marginally more cells than the others |  |  |  |  |  |  |
| RRETAWA [peptide 6, reference compound] |  |  |  |  |  |  |  |  | 2% |  |  | 14 | 3 |
| SPALKTV (Synthetic peptide binding to dendritic cells) | 220 |  | 600 | 6960 | 120 |  | all clones except for one |  |  |  |  |  |  |
| SQKNPQM (Synthetic peptide binding to dendritic cells) |  |  |  |  |  |  | binding to a higher percentage of cells than a phage clone bearing no insert |  |  |  |  |  |  |
| STPPNTT (Synthetic peptide binding to dendritic cells) |  |  |  |  |  |  | a higher percentage of cells positive for bound phage than the controls with no insert |  |  |  |  |  |  |
| TARDYRL (Synthetic peptide binding to dendritic cells) |  |  |  | 940 |  | 180 | a higher percentage of cells positive for bound phage than the controls with no insert |  |  |  |  |  |  |

Source: US7820624B2, “Peptide ligands” (ICH Productions Limited, priority 2003, dated 2010)
